Measurements: PubChem BioAssay AID1963432 (Molecular Pharmacology Branch, DTP, NCI, 2024)

System: SYO-1 complex spheroid growth, percent test/control
Assay: Anticancer human tumor SYO-1 cell line growth inhibition [Asc];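 note: compound exposure lasted 7 days after spheroids grew 3 days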;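 for viability, T/C: 100% = DMSO vehicle control viability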
Details: for IC50: curve of first compound; for viability, T/C: stronger effect = lower value
Summary of the method: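 Tumor cells were grown as complex spheroids with human endothelial cells (HUVEC) and human mesenchymal stem cells as stroma. Agents were tested alone and in combination, in half-log steps down from the clinical Cmax, or from 10 microM where Cmax was unknown.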

[1] = second compound 0.00949 µM, first compound 0.0316 µM
[2] = second compound 0.00949 µM, first compound 0.1 µM
[3] = second compound 0.00949 µM, first compound 0.316 µM
[4] = second compound 0.00949 µM, first compound 1 µM
[5] = second compound 0.00949 µM, first compound 3.16 µM
[6] = second compound 0.00949 µM, first compound 10 µM
[7] = second compound 0.03 µM, first compound 0.0316 µM
[8] = second compound 0.03 µM, first compound 0.1 µM
[9] = second compound 0.03 µM, first compound 0.316 µM
[10] = second compound 0.03 µM, first compound 1 µM
[11] = second compound 0.03 µM, first compound 3.16 µM
[12] = second compound 0.03 µM, first compound 10 µM
[13] = second compound 0.0949 µM, first compound 0.0316 µM
[14] = second compound 0.0949 µM, first compound 0.1 µM
[15] = second compound 0.0949 µM, first compound 0.316 µM
[16] = second compound 0.0949 µM, first compound 1 µM
[17] = second compound 0.0949 µM, first compound 3.16 µM
[18] = second compound 0.0949 µM, first compound 10 µM
[19] = second compound 0.3 µM, first compound 0.0316 µM
[20] = second compound 0.3 µM, first compound 0.1 µM
[21] = second compound 0.3 µM, first compound 0.316 µM
[22] = second compound 0.3 µM, first compound 1 µM
[23] = second compound 0.3 µM, first compound 3.16 µM
[24] = second compound 0.3 µM, first compound 10 µM
[25] = second compound 0.949 µM, first compound 0.0316 µM
[26] = second compound 0.949 µM, first compound 0.1 µM
[27] = second compound 0.949 µM, first compound 0.316 µM
[28] = second compound 0.949 µM, first compound 1 µM
[29] = second compound 0.949 µM, first compound 3.16 µM
[30] = second compound 0.949 µM, first compound 10 µM
[31] = second compound 3 µM, first compound 0.0316 µM
[32] = second compound 3 µM, first compound 0.1 µM
[33] = second compound 3 µM, first compound 0.316 µM
[34] = second compound 3 µM, first compound 1 µM
[35] = second compound 3 µM, first compound 3.16 µM
[36] = second compound 3 µM, first compound 10 µM

For `C#Cc1c(F)ccc2cc(O)cc(-c3ncc4c(N5CC6CCC(C5)N6)nc(OCC56CCCN5CC(F)C6)nc4c3F)c12` (stereo not drawn) + CCN1C(C(=O)NC23CCC(C(=O)O)(CC2)CC3)C(c2cccc(Cl)c2F)C2(C(=O)Nc3cc(Cl)ccc32)C12CCCCC2, the IC50 (second compound 0.00949 µM) was > 10000 nM, the IC50 (second compound 0.03 µM) was > 10000 nM and the IC50 (second compound 0.0949 µM) was > 10000 nM. The IC50 (second compound 0.3 µM) was < 31.6 nM, the IC50 (second compound 0.949 µM) was < 31.6 nM and the IC50 (second compound 3 µM) was < 31.6 nM. For the same compound, the viability, T/C [1] was 113%, the viability, T/C [2] was 95.3% and the viability, T/C [3] was 101%. The viability, T/C [4] was 98.1%, the viability, T/C [5] was 113% and the viability, T/C [6] was 112%. For the same compound, the viability, T/C [7] was 99%, the viability, T/C [8] was 90.1% and the viability, T/C [9] was 97.2%. The viability, T/C [10] was 99.3%, the viability, T/C [11] was 105% and the viability, T/C [12] was 104%. For the same compound, the viability, T/C [13] was 84.8%, the viability, T/C [14] was 81.2% and the viability, T/C [15] was 88.3%. The viability, T/C [16] was 85.8%, the viability, T/C [17] was 86.8% and the viability, T/C [18] was 79.7%. It also gave a viability, T/C [19] of 26.7%, a viability, T/C [20] of 24.9% and a viability, T/C [21] of 21.6%. The viability, T/C [22] was 20.5%, the viability, T/C [23] was 21.6% and the viability, T/C [24] was 13.5%. The viability, T/C [25] was 2.32%, the viability, T/C [26] was 3.19% and the viability, T/C [27] was 3.03%. For the same compound, the viability, T/C [28] was 3.66%, the viability, T/C [29] was 2.43% and the viability, T/C [30] was 0.85%. For the same compound, the viability, T/C [31] was 1.29%, the viability, T/C [32] was 1.17% and the viability, T/C [33] was 1.63%. The viability, T/C [34] was 1.09%, the viability, T/C [35] was 0.91% and the viability, T/C [36] was 0.35%.

`C=C(F)C(=O)N1CCN(c2nc(OCC3CCCN3C)nc3c2CCN(c2cccc4cccc(Cl)c24)C3)CC1CC#N` (stereo not drawn) + CCN1C(C(=O)NC23CCC(C(=O)O)(CC2)CC3)C(c2cccc(Cl)c2F)C2(C(=O)Nc3cc(Cl)ccc32)C12CCCCC2 gave an IC50 (second compound 0.00949 µM) of 5020 nM, an IC50 (second compound 0.03 µM) of 1860 nM and an IC50 (second compound 0.0949 µM) of 1620 nM. The IC50 (second compound 0.3 µM) was < 31.6 nM, the IC50 (second compound 0.949 µM) was < 31.6 nM and the IC50 (second compound 3 µM) was < 31.6 nM. The viability, T/C [1] was 101%, the viability, T/C [2] was 99.9% and the viability, T/C [3] was 101%. It also gave a viability, T/C [4] of 109%, a viability, T/C [5] of 83.3% and a viability, T/C [6] of 0.4%. It also gave a viability, T/C [7] of 96.9%, a viability, T/C [8] of 95.3% and a viability, T/C [9] of 101%. For the same compound, the viability, T/C [10] was 111%, the viability, T/C [11] was 6.35% and the viability, T/C [12] was 0.68%. For the same compound, the viability, T/C [13] was 87.1%, the viability, T/C [14] was 81% and the viability, T/C [15] was 83.8%. The viability, T/C [16] was 88.2%, the viability, T/C [17] was 1.01% and the viability, T/C [18] was 0.26%. It also gave a viability, T/C [19] of 31.3%, a viability, T/C [20] of 27.9% and a viability, T/C [21] of 22.7%. The viability, T/C [22] was 23.9%, the viability, T/C [23] was 1.47% and the viability, T/C [24] was 0.37%. It also gave a viability, T/C [25] of 4.04%, a viability, T/C [26] of 3.25% and a viability, T/C [27] of 2.38%. The viability, T/C [28] was 1.49%, the viability, T/C [29] was 0.82% and the viability, T/C [30] was 0.26%. The viability, T/C [31] was 2.61%, the viability, T/C [32] was 1.39% and the viability, T/C [33] was 1.16%. For the same compound, the viability, T/C [34] was 0.97%, the viability, T/C [35] was 0.49% and the viability, T/C [36] was 0.4%.

`C=CC(=O)N1CCN(c2nc(=O)n(-c3c(C)ccnc3C(C)C)c3nc(-c4c(O)cccc4F)c(F)cc23)C(C)C1` (stereo not drawn) + CCN1C(C(=O)NC23CCC(C(=O)O)(CC2)CC3)C(c2cccc(Cl)c2F)C2(C(=O)Nc3cc(Cl)ccc32)C12CCCCC2 was tested, and the IC50 (second compound 0.00949 µM) was > 10000 nM, the IC50 (second compound 0.03 µM) was > 10000 nM and the IC50 (second compound 0.0949 µM) was > 10000 nM. For the same compound, the IC50 (second compound 0.3 µM) was < 31.6 nM, the IC50 (second compound 0.949 µM) was < 31.6 nM and the IC50 (second compound 3 µM) was < 31.6 nM. It also gave a viability, T/C [1] of 101%, a viability, T/C [2] of 104% and a viability, T/C [3] of 103%. For the same compound, the viability, T/C [4] was 103%, the viability, T/C [5] was 92% and the viability, T/C [6] was 89.1%. It also gave a viability, T/C [7] of 98%, a viability, T/C [8] of 94.7% and a viability, T/C [9] of 96.7%. For the same compound, the viability, T/C [10] was 103%, the viability, T/C [11] was 97.6% and the viability, T/C [12] was 81.8%. It also gave a viability, T/C [13] of 78.5%, a viability, T/C [14] of 84% and a viability, T/C [15] of 76.7%. The viability, T/C [16] was 79.4%, the viability, T/C [17] was 75.9% and the viability, T/C [18] was 56.2%. The viability, T/C [19] was 29.8%, the viability, T/C [20] was 25.3% and the viability, T/C [21] was 25.2%. For the same compound, the viability, T/C [22] was 20.8%, the viability, T/C [23] was 21.3% and the viability, T/C [24] was 12.2%. The viability, T/C [25] was 3.03%, the viability, T/C [26] was 4.04% and the viability, T/C [27] was 2.34%. For the same compound, the viability, T/C [28] was 2.88%, the viability, T/C [29] was 2.48% and the viability, T/C [30] was 2.88%. It also gave a viability, T/C [31] of 1.34%, a viability, T/C [32] of 1.23% and a viability, T/C [33] of 1.3%. It also gave a viability, T/C [34] of 1.29%, a viability, T/C [35] of 1.12% and a viability, T/C [36] of 1.29%.

With `CNC(C)C(=O)NC1CN(S(=O)(=O)c2cccc(S(=O)(=O)N3CCC4CCC(C(=O)NC(c5ccccc5)c5ccccc5)N4C(=O)C(NC(=O)C(C)NC)C3)c2)CCC2CCC(C(=O)NC(c3ccccc3)c3ccccc3)N2C1=O` (stereo not drawn) + CCN1C(C(=O)NC23CCC(C(=O)O)(CC2)CC3)C(c2cccc(Cl)c2F)C2(C(=O)Nc3cc(Cl)ccc32)C12CCCCC2 the IC50 (second compound 0.00949 µM) was > 1000 nM, the IC50 (second compound 0.03 µM) was > 1000 nM and the IC50 (second compound 0.0949 µM) was > 1000 nM. The IC50 (second compound 0.3 µM) was < 3.16 nM, the IC50 (second compound 0.949 µM) was < 3.16 nM and the IC50 (second compound 3 µM) was < 3.16 nM. For the same compound, the viability, T/C (second compound 0.00949 µM, first compound 0.00316 µM) was 109%, the viability, T/C (second compound 0.00949 µM, first compound 0.01 µM) was 104% and the viability, T/C [1] was 104%. It also gave a viability, T/C [2] of 112%, a viability, T/C [3] of 113% and a viability, T/C [4] of 98.7%. It also gave a viability, T/C (second compound 0.03 µM, first compound 0.00316 µM) of 99.2%, a viability, T/C (second compound 0.03 µM, first compound 0.01 µM) of 99.9% and a viability, T/C [7] of 99.2%. The viability, T/C [8] was 105%, the viability, T/C [9] was 101% and the viability, T/C [10] was 96.6%. The viability, T/C (second compound 0.0949 µM, first compound 0.00316 µM) was 85.7%, the viability, T/C (second compound 0.0949 µM, first compound 0.01 µM) was 82.6% and the viability, T/C [13] was 76.7%. The viability, T/C [14] was 75.3%, the viability, T/C [15] was 81.2% and the viability, T/C [16] was 70.6%. It also gave a viability, T/C (second compound 0.3 µM, first compound 0.00316 µM) of 26.2%, a viability, T/C (second compound 0.3 µM, first compound 0.01 µM) of 20% and a viability, T/C [19] of 16.1%. For the same compound, the viability, T/C [20] was 15.6%, the viability, T/C [21] was 16% and the viability, T/C [22] was 13.4%. For the same compound, the viability, T/C (second compound 0.949 µM, first compound 0.00316 µM) was 4.14%, the viability, T/C (second compound 0.949 µM, first compound 0.01 µM) was 1.95% and the viability, T/C [25] was 1.29%. It also gave a viability, T/C [26] of 1.74%, a viability, T/C [27] of 0.96% and a viability, T/C [28] of 0.61%. The viability, T/C (second compound 3 µM, first compound 0.00316 µM) was 1.42%, the viability, T/C (second compound 3 µM, first compound 0.01 µM) was 1.29% and the viability, T/C [31] was 0.76%. The viability, T/C [32] was 1.16%, the viability, T/C [33] was 0.78% and the viability, T/C [34] was 0.82%.
